Measured values taken from BindingDB's records for doi:10.7270/Q2862DWJ (Nmmlsc, 2009).

target: Isoform Bcl-X(L) of Bcl-2-like protein 1 (Bcl-xL) (Homo sapiens, UniProt Q07817); experiment: Bcl-XL/Bim binding disruption – biochemical, dose response, multiplexed, HTS hits, confirmation (AID 2084); settings: inactive by the depositor's call
Sequence (Q07817 whole entry G70A, canonical isoform): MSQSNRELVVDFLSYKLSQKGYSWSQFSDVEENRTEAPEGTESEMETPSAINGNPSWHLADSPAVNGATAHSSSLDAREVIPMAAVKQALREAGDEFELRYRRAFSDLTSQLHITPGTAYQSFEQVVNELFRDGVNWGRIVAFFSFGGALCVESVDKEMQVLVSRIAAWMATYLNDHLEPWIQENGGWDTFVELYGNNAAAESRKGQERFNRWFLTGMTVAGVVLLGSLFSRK

First: O=c1[nH]c(O)c(Cc2ccc(-c3cc(Cl)ccc3[N+](=O)[O-])o2)c(=O)[nH]1
Second: Cc1ccc(-c2nc3c(c(=O)[nH]c(=O)n3Cc3ccccc3)n2C)o1 [7-methyl-8-(5-methyl-2-furanyl)-3-(phenylmethyl)purine-2,6-dione]
The EC50 of the first is 1.6-fold lower: 26.4 µM for the first, 43.5 µM for the second.

Going from `CNC1CCC(Br)CC(C(=O)C=Cc2cccc(OC)c2OC)C1=O` (stereo not given) [4-bromo-2-[(E)-3-(2,3-dimethoxyphenyl)-1-oxoprop-2-enyl]-7-(methylamino)-1-cycloheptanone] to `COc1ccc(CCNC(=O)c2ccc3nc(-c4ccco4)c(-c4ccco4)nc3c2)cc1OC` [N-[2-(3,4-dimethoxyphenyl)ethyl]-2,3-di-2-furylquinoxaline-6-carboxamide], the EC50 falls from 45.5 µM to 18.4 µM (2.5-fold). The second is the more potent here.

Work on `Clc1nc(NCc2cccnc2)nc(N2CCOCC2)n1` [MLS000121154] yielded an EC50 of 15.1 µM.
